Experimental data taken from PubChem BioAssay (NCI).
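Dose response: 5 concentrations. Exposure: 48 h. Format: 96-well plates. Endpoint: linear interpolation; highest concentration if not reached. TGI is the concentration that stops growth completely.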

Assays:
Experiment in all cases: inhibition of tumour cell growth, NCI panel, 48 h
A549 NSCLC = test system: A549 NSCLC
ACHN renal = test system: ACHN renal
DU-145 prostate = test system: DU-145 prostate
EKVX NSCLC = test system: EKVX NSCLC
HCC-2998 colon = test system: HCC-2998 colon
K-562 leukemia = test system: K-562 leukemia
NCI-H226 lung = test system: NCI-H226 lung
NCI/ADR-RES ovarian = test system: NCI/ADR-RES ovarian
PC-3 prostate = test system: PC-3 prostate
SF-295 CNS = test system: SF-295 CNS
SN12C renal = test system: SN12C renal
SNB-19 CNS = test system: SNB-19 CNS
SW-620 colon = test system: SW-620 colon
TK-10 renal = test system: TK-10 renal
UACC-257 melanoma = test system: UACC-257 melanoma

Row | Structure (SMILES) | TGI (A549 NSCLC) | TGI (ACHN renal) | TGI (DU-145 prostate) | TGI (EKVX NSCLC) | TGI (HCC-2998 colon) | TGI (K-562 leukemia) | TGI (NCI-H226 lung) | TGI (NCI/ADR-RES ovarian) | TGI (PC-3 prostate) | TGI (SF-295 CNS) | TGI (SN12C renal) | TGI (SNB-19 CNS) | TGI (SW-620 colon) | TGI (TK-10 renal) | TGI (UACC-257 melanoma)
1 | CC(NC(=O)C(OC(=O)C(C)NC(=O)OC(C)(C)C)C(C)C)C(=O)OC(C(=O)O)C(C)C (stereo not given) | > 100 µM | > 100 µM | > 100 µM | > 100 µM | > 100 µM | > 100 µM | > 100 µM | > 100 µM | > 100 µM | > 100 µM | > 100 µM | > 100 µM | > 100 µM | > 100 µM | > 100 µM
2 | CO[C@H]1O[C@@H]2CO[C@@H](c3ccccc3)O[C@H]2[C@@H]2CC=CCC[C@]12O | > 100 µM | > 100 µM | > 100 µM | > 100 µM | 51.7 µM | > 100 µM | > 100 µM | > 100 µM | > 100 µM | > 100 µM | > 100 µM | > 100 µM | > 100 µM | > 100 µM | > 100 µM
3 | O=C(O)CN=C(C(=NCC(=O)O)c1ccccc1)c1ccccc1 | > 100 µM | > 100 µM | > 100 µM | > 100 µM | > 100 µM | > 100 µM | > 100 µM | > 100 µM | > 100 µM | > 100 µM | > 100 µM | > 100 µM | > 100 µM | > 100 µM | > 100 µM
4 | COc1ccc(OC)c([N+](=O)[O-])c1-c1nc2sccn2c1/C=N/N=C(N)N | > 100 µM | > 100 µM | > 100 µM | > 100 µM | 79.4 µM | > 100 µM | > 100 µM | > 100 µM | > 100 µM | > 100 µM | > 100 µM | > 100 µM | > 100 µM | > 100 µM | > 100 µM
5 | CC(=O)NC1=C(C)C(=O)c2c(nc3n2CCC3OC(=O)c2ccccc2)C1=N (stereo not given) | 11 µM | 3.13 µM | 3.44 µM | 6 µM | 3.79 µM | 5.65 µM | 13.9 µM | 8.52 µM | 6.85 µM | 6.53 µM | 3.16 µM | 11.7 µM | 5.17 µM | 9.17 µM | 3.47 µM
6 | Nc1nc(Cl)c(N)c(NCC2(CO)CC(Cc3ccccc3)C2)n1 (stereo not given) | > 100 µM | > 100 µM | > 100 µM | > 100 µM | > 100 µM | > 94.3 µM | > 100 µM | > 100 µM | > 100 µM | > 100 µM | > 100 µM | > 100 µM | > 100 µM | > 100 µM | > 86.3 µM
7 | Clc1cc(OCc2nn3c(Cc4ccccc4)nnc3s2)ccc1OCc1nn2c(Cc3ccccc3)nnc2s1 | > 100 µM | > 100 µM | > 100 µM | 66.2 µM | > 100 µM | > 100 µM | > 100 µM | > 100 µM | > 100 µM | 63.9 µM | > 100 µM | 82.7 µM | > 100 µM | 72.1 µM | > 100 µM
8 | C[n+]1noc(/N=N\[O-])c1-c1cc(-c2c(/N=N\[O-])on[n+]2C)cc(-c2c(/N=N/[O-])on[n+]2C)c1 | > 100 µM | > 100 µM | > 100 µM | > 100 µM | > 100 µM | > 100 µM | > 100 µM | > 100 µM | > 100 µM | > 100 µM | > 100 µM | > 100 µM | > 100 µM | > 100 µM | > 100 µM
